Laboratory results reported in ChEMBL document CHEMBL5303573, “Mapping human microbiome drug metabolism by gut bacteria and their genes” (Nature, 2019).

Legend:
[1] = limosilactobacillus reuteri cf48-3a, 12 h, 2 µM
Description: The drug is tested on Lactobacillus reuteri CF48-3A strain: BEI HM-102 for biotransformation. The drug concentrations were measured before and after a 12-h incubation by liquid-chromatography-coupled mass spectrometry (LC–MS)

[2] = The drug is tested on Eubacterium hallii strain: DSM3353 for biotransformation. The drug concentrations were measured before and after a 12-h incubation by liquid-chromatography-coupled mass spectrometry (LC–MS); conditions: anaerobutyricum hallii, 2 µM
[3] = The drug is tested on Enterococcus faecalis strain: V583 for biotransformation. The drug concentrations were measured before and after a 12-h incubation by liquid-chromatography-coupled mass spectrometry (LC–MS); conditions: 2 µM
[4] = bifidobacterium adolescentis, 12 h, 2 µM
Description: The drug is tested on Bifidobacterium adolescentis strain: ATCC 15703 for biotransformation. The drug concentrations were measured before and after a 12-h incubation by liquid-chromatography-coupled mass spectrometry (LC–MS)

[5] = The drug is tested on Blautia luti strain: DSM14534 for biotransformation. The drug concentrations were measured before and after a 12-h incubation by liquid-chromatography-coupled mass spectrometry (LC–MS); assay type: ADME; design: dose 2 uM, timepoint 0 vs 12 hours; conditions: 2 µM
[6] = The drug is tested on Anaerococcus hydrogenalis strain: DSM7454 for biotransformation. The drug concentrations were measured before and after a 12-h incubation by liquid-chromatography-coupled mass spectrometry (LC–MS); conditions: 2 µM
[7] = The drug is tested on Bifidobacterium breve strain: DSM20213 for biotransformation. The drug concentrations were measured before and after a 12-h incubation by liquid-chromatography-coupled mass spectrometry (LC–MS); conditions: 2 µM
[8] = The drug is tested on Bacteroides finegoldii strain: DSM17565 for biotransformation. The drug concentrations were measured before and after a 12-h incubation by liquid-chromatography-coupled mass spectrometry (LC–MS); conditions: 2 µM
[9] = parabacteroides distasonis, 12 h, 2 µM
Description: The drug is tested on Parabacteroides distasonis strain: ATCC8503 for biotransformation. The drug concentrations were measured before and after a 12-h incubation by liquid-chromatography-coupled mass spectrometry (LC–MS)

[10] = The drug is tested on Ruminococcus lactaris strain: ATCC29176 for biotransformation. The drug concentrations were measured before and after a 12-h incubation by liquid-chromatography-coupled mass spectrometry (LC–MS); conditions: 2 µM
[11] = The drug is tested on Clostridium scindens strain: ATCC35704 for biotransformation. The drug concentrations were measured before and after a 12-h incubation by liquid-chromatography-coupled mass spectrometry (LC–MS); conditions: 2 µM
[12] = The drug is tested on Bifidobacterium ruminantium strain: fecal isolate for biotransformation. The drug concentrations were measured before and after a 12-h incubation by liquid-chromatography-coupled mass spectrometry (LC–MS); conditions: 2 µM
[13] = roseburia intestinalis, 12 h, 2 µM
Description: The drug is tested on Roseburia intestinalis strain: L1-82 for biotransformation. The drug concentrations were measured before and after a 12-h incubation by liquid-chromatography-coupled mass spectrometry (LC–MS)

[14] = The drug is tested on Anaerotruncus colihominis strain: DSM17241 for biotransformation. The drug concentrations were measured before and after a 12-h incubation by liquid-chromatography-coupled mass spectrometry (LC–MS); conditions: 2 µM
[15] = segatella copri, 12 h, 2 µM
Description: The drug is tested on Prevotella copri strain: DSM18205 for biotransformation. The drug concentrations were measured before and after a 12-h incubation by liquid-chromatography-coupled mass spectrometry (LC–MS)

[16] = The drug is tested on Bacteroides caccae strain: ATCC43185 for biotransformation. The drug concentrations were measured before and after a 12-h incubation by liquid-chromatography-coupled mass spectrometry (LC–MS); conditions: 2 µM
[17] = The drug is tested on Edwardsiella tarda strain: ATCC23685 for biotransformation. The drug concentrations were measured before and after a 12-h incubation by liquid-chromatography-coupled mass spectrometry (LC–MS); conditions: 2 µM
[18] = The drug is tested on Coprococcus comes strain: ATCC27758 for biotransformation. The drug concentrations were measured before and after a 12-h incubation by liquid-chromatography-coupled mass spectrometry (LC–MS); assay type: ADME; design: dose 2 uM, timepoint 0 vs 12 hours; conditions: 2 µM
[19] = bacteroides fragilis, 12 h, 2 µM
Description: The drug is tested on Bacteroides fragilis strain: NCTC 9343 for biotransformation. The drug concentrations were measured before and after a 12-h incubation by liquid-chromatography-coupled mass spectrometry (LC–MS)

CCN(C)C(=O)Oc1cccc([C@H](C)N(C)C)c1.O=C(O)C(O)C(O)C(=O)O [RIVASTIGMINE TARTRATE]
Bacterial Biotransformation [1]: Compound NOT metabolized
Bacterial Biotransformation [2]: Compound NOT metabolized
Bacterial Biotransformation [3]: Compound NOT metabolized
Bacterial Biotransformation [4]: Compound NOT metabolized
Bacterial Biotransformation [5]: Compound NOT metabolized
Bacterial Biotransformation [6]: Compound NOT metabolized
Bacterial Biotransformation [7]: Compound NOT metabolized
Bacterial Biotransformation [8]: Compound NOT metabolized
Bacterial Biotransformation [9]: Compound NOT metabolized
Bacterial Biotransformation [10]: Compound NOT metabolized
Bacterial Biotransformation [11]: Compound NOT metabolized
Bacterial Biotransformation [12]: Compound NOT metabolized
Bacterial Biotransformation [13]: Compound NOT metabolized
Bacterial Biotransformation [14]: Compound NOT metabolized
Bacterial Biotransformation [15]: Compound NOT metabolized
Bacterial Biotransformation [16]: Compound NOT metabolized
Bacterial Biotransformation [17]: Compound NOT metabolized
Bacterial Biotransformation [18]: Compound NOT metabolized

CCN(C(C)=O)c1cccc(-c2ccnc3c(C#N)cnn23)c1 [ZALEPLON]
Bacterial Biotransformation [2]: Compound NOT metabolized
Bacterial Biotransformation [3]: Compound NOT metabolized
Bacterial Biotransformation [5]: Compound NOT metabolized
Bacterial Biotransformation [6]: Compound NOT metabolized
Bacterial Biotransformation [7]: Compound NOT metabolized
Bacterial Biotransformation [9]: Compound NOT metabolized
Bacterial Biotransformation [10]: Compound NOT metabolized
Bacterial Biotransformation [11]: Compound NOT metabolized
Bacterial Biotransformation [12]: Compound NOT metabolized
Bacterial Biotransformation [14]: Compound NOT metabolized
Bacterial Biotransformation [15]: Compound NOT metabolized
Bacterial Biotransformation [19]: Compound metabolized
Bacterial Biotransformation [18]: Compound NOT metabolized

OC(CCN1CCCCC1)(c1ccccc1)C1CCCCC1 (stereo not drawn) [TRIHEXYPHENIDYL]
Bacterial Biotransformation [1]: Compound NOT metabolized
Bacterial Biotransformation [2]: Compound NOT metabolized
Bacterial Biotransformation [3]: Compound NOT metabolized
Bacterial Biotransformation [4]: Compound NOT metabolized
Bacterial Biotransformation [5]: Compound NOT metabolized
Bacterial Biotransformation [6]: Compound NOT metabolized
Bacterial Biotransformation [7]: Compound NOT metabolized
Bacterial Biotransformation [8]: Compound NOT metabolized
Bacterial Biotransformation [9]: Compound NOT metabolized
Bacterial Biotransformation [10]: Compound NOT metabolized
Bacterial Biotransformation [11]: Compound NOT metabolized
Bacterial Biotransformation [12]: Compound metabolized
Bacterial Biotransformation [14]: Compound NOT metabolized
Bacterial Biotransformation [16]: Compound NOT metabolized
Bacterial Biotransformation [17]: Compound NOT metabolized
Bacterial Biotransformation [19]: Compound NOT metabolized
Bacterial Biotransformation [18]: Compound NOT metabolized

Nc1c2c(nc3ccccc13)CCCC2 [TACRINE]
Bacterial Biotransformation [1]: Compound NOT metabolized
Bacterial Biotransformation [2]: Compound NOT metabolized
Bacterial Biotransformation [3]: Compound NOT metabolized
Bacterial Biotransformation [4]: Compound NOT metabolized
Bacterial Biotransformation [5]: Compound NOT metabolized
Bacterial Biotransformation [6]: Compound NOT metabolized
Bacterial Biotransformation [7]: Compound NOT metabolized
Bacterial Biotransformation [8]: Compound NOT metabolized
Bacterial Biotransformation [9]: Compound NOT metabolized
Bacterial Biotransformation [10]: Compound NOT metabolized
Bacterial Biotransformation [11]: Compound NOT metabolized
Bacterial Biotransformation [12]: Compound NOT metabolized
Bacterial Biotransformation [13]: Compound NOT metabolized
Bacterial Biotransformation [14]: Compound NOT metabolized
Bacterial Biotransformation [15]: Compound NOT metabolized
Bacterial Biotransformation [16]: Compound NOT metabolized
Bacterial Biotransformation [17]: Compound NOT metabolized
Bacterial Biotransformation [18]: Compound NOT metabolized

CCN(CC)CCNC(C(=O)OCCC(C)C)c1ccccc1.Cl.Cl (stereo not drawn)
Bacterial Biotransformation [1]: Compound NOT metabolized
Bacterial Biotransformation [2]: Compound NOT metabolized
Bacterial Biotransformation [3]: Compound NOT metabolized
Bacterial Biotransformation [4]: Compound NOT metabolized
Bacterial Biotransformation [5]: Compound NOT metabolized
Bacterial Biotransformation [6]: Compound NOT metabolized
Bacterial Biotransformation [8]: Compound NOT metabolized
Bacterial Biotransformation [9]: Compound NOT metabolized
Bacterial Biotransformation [10]: Compound NOT metabolized
Bacterial Biotransformation [11]: Compound NOT metabolized
Bacterial Biotransformation [12]: Compound NOT metabolized
Bacterial Biotransformation [13]: Compound NOT metabolized
Bacterial Biotransformation [14]: Compound NOT metabolized
Bacterial Biotransformation [15]: Compound NOT metabolized
Bacterial Biotransformation [16]: Compound NOT metabolized
Bacterial Biotransformation [17]: Compound NOT metabolized
Bacterial Biotransformation [18]: Compound NOT metabolized

O=C1N=C([O-])NC1(c1ccccc1)c1ccccc1.[Na+] [PHENYTOIN SODIUM]
Bacterial Biotransformation [1]: Compound NOT metabolized
Bacterial Biotransformation [2]: Compound NOT metabolized
Bacterial Biotransformation [3]: Compound NOT metabolized
Bacterial Biotransformation [4]: Compound NOT metabolized
Bacterial Biotransformation [6]: Compound NOT metabolized
Bacterial Biotransformation [7]: Compound NOT metabolized
Bacterial Biotransformation [8]: Compound NOT metabolized
Bacterial Biotransformation [9]: Compound metabolized
Bacterial Biotransformation [11]: Compound NOT metabolized
Bacterial Biotransformation [12]: Compound metabolized
Bacterial Biotransformation [13]: Compound NOT metabolized
Bacterial Biotransformation [14]: Compound NOT metabolized
Bacterial Biotransformation [15]: Compound NOT metabolized
Bacterial Biotransformation [19]: Compound metabolized
Bacterial Biotransformation [18]: Compound NOT metabolized

COc1cc2nc(N(C)CCCNC(=O)C3CCCO3)nc(N)c2cc1OC (stereo not drawn) [ALFUZOSIN]
Bacterial Biotransformation [1]: Compound NOT metabolized
Bacterial Biotransformation [2]: Compound NOT metabolized
Bacterial Biotransformation [3]: Compound NOT metabolized
Bacterial Biotransformation [4]: Compound NOT metabolized
Bacterial Biotransformation [5]: Compound NOT metabolized
Bacterial Biotransformation [6]: Compound NOT metabolized
Bacterial Biotransformation [8]: Compound NOT metabolized
Bacterial Biotransformation [9]: Compound NOT metabolized
Bacterial Biotransformation [11]: Compound NOT metabolized
Bacterial Biotransformation [12]: Compound NOT metabolized
Bacterial Biotransformation [13]: Compound NOT metabolized
Bacterial Biotransformation [14]: Compound NOT metabolized
Bacterial Biotransformation [15]: Compound NOT metabolized
Bacterial Biotransformation [16]: Compound NOT metabolized
Bacterial Biotransformation [17]: Compound NOT metabolized
Bacterial Biotransformation [19]: Compound NOT metabolized
Bacterial Biotransformation [18]: Compound NOT metabolized

CC(C)(C)N.CCC[C@H](N[C@@H](C)C(=O)N1[C@H](C(=O)O)C[C@@H]2CCCC[C@@H]21)C(=O)OCC [PERINDOPRIL ERBUMINE]
Bacterial Biotransformation [1]: Compound NOT metabolized
Bacterial Biotransformation [2]: Compound NOT metabolized
Bacterial Biotransformation [3]: Compound NOT metabolized
Bacterial Biotransformation [4]: Compound NOT metabolized
Bacterial Biotransformation [5]: Compound NOT metabolized
Bacterial Biotransformation [6]: Compound NOT metabolized
Bacterial Biotransformation [7]: Compound NOT metabolized
Bacterial Biotransformation [8]: Compound NOT metabolized
Bacterial Biotransformation [9]: Compound NOT metabolized
Bacterial Biotransformation [10]: Compound NOT metabolized
Bacterial Biotransformation [11]: Compound NOT metabolized
Bacterial Biotransformation [12]: Compound NOT metabolized
Bacterial Biotransformation [13]: Compound NOT metabolized
Bacterial Biotransformation [14]: Compound NOT metabolized
Bacterial Biotransformation [16]: Compound NOT metabolized
Bacterial Biotransformation [17]: Compound NOT metabolized
Bacterial Biotransformation [19]: Compound NOT metabolized
Bacterial Biotransformation [18]: Compound NOT metabolized
